Where two headings read alike, the source gives them in different places.
Columns and labels:
[1] = test system: normal human fibroblast cell line FF2441; assay: MTS cell viability assay, normal fibroblasts; assay type: cell-based; details: 72 hours treatment, read-out: Melanoma cell killing efficacy (IC50 values) FF2441 (Normal Cells)
Procedure: (§1) Dr. Craig Myers, Penn State College of Medicine, Hershey, PA provided normal human fibroblast cell line FF2441. Mutant V600E-BRAF human melanoma cell line 1205 Lu was provided by Dr. Herlyn; Wistar Institute, Philadelphia, PA and UACC 903 was provided by Dr. Mark Nelson; University of Arizona, Tucson, AZ. Cell lines were maintained in a 37°C humidified 5% CO2 atmosphere incubator and periodically monitored for phenotypic, genotypic characteristics, and tumorigenic potential to validate and confirm cell line identity.
(§2) In brief, 5 × 10^3 cells per well in 100 μL of media were seeded and grown in a 96-well plate for 48 to 72 hours and treated with either DMSO vehicle control or 0.62 to 100 μmol/L of compounds for 72 hours. IC50 values for each compound in μmol/L for respective cell lines were measured from three independent experiments using GraphPad Prism version 4.01 (GraphPad Software, La Jolla, CA). In addition, recovery and viability assessment was also measured with these compounds co-treated simultaneously with 10 nmol/L of bafilomycin A1 (BafA1) or 1 mMol/L β-cyclodextrin and the viability was measured using the MTS assay after 24 hours.

[2] = test system: UACC 903 melanoma cells; assay: MTS cell viability assay, UACC 903 melanoma cells; assay type: cell-based, human; details: 72 hours treatment, read-out: Melanoma cell killing efficacy (IC50 values) UACC 903 (Melanoma cells)
Procedure: as §1, §2

[3] = test system: 1205 Lu melanoma cells; assay: MTS cell viability assay, 1205 Lu melanoma cells; assay type: cell-based, human; details: 72 hours treatment, read-out: Melanoma cell killing efficacy (IC50 values) 1205 Lu (Melanoma cells)
Procedure: as §1, §2

[4] = test system: UACC 903 melanoma cell line; assay: Western blot of signaling pathways (PI3K/AKT, STAT3, MAPK; pERK1/2); assay type: cell-based, human; details: active 3-5 μmol/L, inactive 30-50 μmol/L, 24 hours
Text: (§3) Cell lysates were harvested and processed as described in refs [14, 29, 31, 34]. […] Protein lysates were collected for Western blotting analysis. Blots were probed with antibodies according to each supplier's recommendations: antibodies to IGF-1R, total AKT, phosphor AKT (Ser473), total PRAS40, phospho-PRAS40 (Thr246), total ERK1/2, phospho-ERK1/2 (Thr202/Tyr 204), total CDK2, phospho-CDK2 (Thr160), p62, LC3B, total STAT, phospho-STAT3 (Tyr705), caspase 3 and cleaved PARP from Cell Signaling Technology (Danvers, MA); cyclin D1, α-enolase and secondary antibodies conjugated with horseradish peroxidase from Santa Cruz Biotechnology (Santa Cruz, CA). Immunoblots were developed using the enhanced chemiluminescence (ECL) detection system (Thermo Fisher Scientific, Rockford, IL).

[5] = test system: UACC 903 melanoma cells; assay: Tumorigenicity assessment, xenografted melanoma tumors; assay type: in vivo; details: 80 mg/kg oral daily; UACC 903 xenograft, athymic nu/nu mice
Procedure: (§4) 1 × 10^6 UACC 903 cells in 0.2 mL of DMEM supplemented with 10% FBS were subcutaneously injected above both left and right rib cages of 4–6 week old female athymic nu/nu mice. Six to eight days later, mice were randomly sorted into vehicle control 10% PEG (Poly ethylene glycol) and experimental compound 4a or leelamine groups, followed by daily oral administration of 80 mg/kg body weight. Volume of developing tumors in mm^3 was measured on alternate days using calipers along with assessment of body weights.

[6] = Body weight and sub-chronic toxicity assessment (blood biomarkers) in tumor-bearing mice; assay type: in vivo; details: 80 mg/kg oral daily; for body weights of mice: 24 days of treatment
Procedure: as §4
At the end of tumorigenicity assessment, blood was collected from each euthanized animal in a serum separator tube with lithium heparin (BD Microtainer), following cardiac puncture and analyzed for levels of ALT (Alanine aminotransferase), AST (Aspartate aminotransferase), ALKP (Alkaline phosphatase), ALB (Albumin), GLB (Globulin), TPR (Total Protein), TBIL (Total bilirubin), BUN (Blood urea nitrogen), GLU (Glucose), CK (Creatine kinase), CAL (Calcium).

[7] = test system: melanoma cells; assay: Autophagic flux: Western blot of p62 and LC3B; assay type: cell-based, human; details: Western blotting, 24 hours
Text: as §3

[8] = test system: UACC 903 cells; assay: Endocytosis: Alexa Fluor 488 transferrin uptake; assay type: cell-based, human; details: UACC 903, 2 hours treatment
Procedure: The endocytotic capacity of the cells was measured as described in Kuzu et al. 2014 [14]. Briefly, UACC 903 cells were seeded into chamber slides and treated with the particular agents for 2 hours. Next, Alexa Flor 488 tagged transferrin protein was added at a final concentration of 5 μg/mL and incubated for 30 minutes. Cells were then fixed on the slide with 4% paraformaldehyde and analyzed by fluorescence microscopy as described previously. Measurement of compounds effects on lysosomotropism was assessed through the appearance of cellular vacuolization of UACC 903 cells growing at 70 to 80% confluency on 100 mm culture dishes compared to controls. For some experimental conditions cells were co-treated with 10 nmol/L of BafA1 for 3 hours. Light microscopic images were used to assess cellular vacuolization.

[9] = Pharmacokinetics of leelamine in the serum of mice; assay type: in vivo; details: 80 mg/kg oral, Swiss Webster mice
Procedure: Leelamine was extracted from serum as reported previously. Swiss Webster mice were treated orally with 80 mg/kg body weight of leelamine, animals were euthanized and blood drawn by cardiac puncture at various time periods over 36 hours. Samples were kept at room temperature for 30 minutes followed by serum separation by centrifugation for 5 minutes at 5,000 rpm. Next, 20 μL of the collected serum was added to 80 μL of acetonitrile along with 5 μL of propranolol (RS)-1-(1-methylethylamino)-3-(1-naphthyloxy)propan-2-ol), which served as an internal standard (transition of m/z 259.9 to 116.0). Solution was vortexed for 30 seconds and then centrifuged at 10,000 rpm for 10 minutes. Supernatant was transferred to the auto sampler vials and subject to liquid chromatography-mass spectrometry using LC-MS/MS 2010 EV system (Shimadzu, Tokyo, Japan).

[10] = Dose escalation for oral administration of leelamine; assay type: in vivo; details: 80 mg/kg body weight (QOD) over 14 days, Swiss Webster mice
Procedure: To determine the effective oral dosage of leelamine, a dose escalation study was conducted in 4–6 week old Swiss Webster mice. […] Animals were weighed daily to ascertain potential toxic effects leading to changes in body weight. At the end of treatment, blood was collected from each sacrificed animal in a serum separator tube with lithium heparin (BD Microtainer) following cardiac puncture and levels of serum biomarkers of major organ toxicity were measured. In addition, vital organs including liver, spleen, kidney, intestine, lung and heart from control and experimental animals were collected on day 14, formalin fixed, paraffin-embedded, H&E stained and analyzed microscopically for changes in cellular morphology or tissue architecture.

CC(C)C1=CC2=CCC3[C@](C)(CCC[C@@]3(C)C(N)=O)C2CC1 (stereo partly drawn) [3a, (1R, 4aR)-7-isopropyl-1,4a-dimethyl-1,2,3,4,4a,4b,5,6,10,10a-decahydrophenanthrene-1-carboxamide]
IC50 [1]: > 100 µM | IC50 ([2]; Homo sapiens, UACC-903, 72 h): 70.1 ± 1.8 µM | IC50 ([3]; Homo sapiens, 1205Lu, 72 h): 81 ± 2.1 µM

CNC(=O)[C@]1(C)CCC[C@]2(C)C3CCC(C(C)C)=CC3=CCC21 (stereo partly drawn) [3b, (1R, 4aR)-N, 1,4a-trimethyl-7-(propan-2-yl)-1,2,3,4,4a, 4b, 5,6, 10, 10a-decahydrophenanthrene-1-carboxamide]
IC50 [1]: > 100 µM | IC50 ([2]; Homo sapiens, UACC-903, 72 h): > 100 µM | IC50 ([3]; Homo sapiens, 1205Lu, 72 h): > 100 µM

CCN(CC)C(=O)[C@]1(C)CCC[C@]2(C)C3CCC(C(C)C)=CC3=CCC21 (stereo partly drawn) [3c, (1R, 4aR)-N, N-diethyl-1,4a-dimethyl-7-(propan-2-yl)-1,2,3,4,4a, 4b, 5,6, 10, 10a-decahydrophenanthrene-1-carboxamide]
IC50 [1]: > 100 µM | IC50 ([2]; Homo sapiens, UACC-903, 72 h): > 100 µM | IC50 ([3]; Homo sapiens, 1205Lu, 72 h): > 100 µM

CC(C)C1=CC2=CCC3[C@](C)(CN)CCC[C@]3(C)C2CC1 (stereo partly drawn) [4a, [(1R, 4aR)-1,4a-dimethyl-7-(propan-2-yl)-1,2,3,4,4a, 4b, 5,6,10,10a-decahydrophenanthren-1-yl] methanamine]
IC50 [1]: 8.33 ± 0.4 µM | IC50 ([2]; Homo sapiens, UACC-903, 72 h): 2.1 µM | IC50 ([3]; Homo sapiens, 1205Lu, 72 h): 2.9 µM | effect on PI3K/AKT, STAT3 and MAPK signaling pathways [4]: inhibited | reduction of tumor volume compared with vehicle control [5]: 51% | body weights of mice [6]: No significant differences | blood parameters (ALT, AST, ALKP, ALB, GLB, TPR, TBIL, BUN, GLU, CK and CAL) indicative of organ-related sub-chronic toxicity ([6]; end of study): fell in the normal range | autophagic flux (p62 and LC3B proteins) [7]: dose dependently induced accumulation of p62 and LC3B proteins

CNC[C@]1(C)CCC[C@]2(C)C3CCC(C(C)C)=CC3=CCC12 (stereo partly drawn) [4b, {[(1R, 4aR)-1,4a-dimethyl-7-(propan-2-yl)-1,2,3,4,4a, 4b, 5,6,10,10a-decahydrophenanthren-1-yl]methyl}(methyl) amine]
IC50 [1]: 9.33 ± 1.2 µM | IC50 ([2]; Homo sapiens, UACC-903, 72 h): 2.3 µM | IC50 ([3]; Homo sapiens, 1205Lu, 72 h): 2.3 µM

CCN(CC)C[C@]1(C)CCC[C@]2(C)C3CCC(C(C)C)=CC3=CCC12 (stereo partly drawn) [4c, N-ethyl-N-(((1R, 4aR)-7-isopropyl-1,4a-dimethyl-1,2,3,4,4a, 4b,5,6,10,10a-decahydrophenanthren-1-yl)methyl) ethanamine]
IC50 [1]: > 100 µM | IC50 ([2]; Homo sapiens, UACC-903, 72 h): 24.4 ± 1.4 µM | IC50 ([3]; Homo sapiens, 1205Lu, 72 h): 24.3 ± 2.5 µM

CC(C)c1ccc2c(c1)CCC1[C@](C)(CNC(=O)C(F)(F)F)CCC[C@]21C (stereo partly drawn) [5a, N-{[(1R, 4aS)-1,4a-dimethyl-7-(propan-2-yl)-1,2,3,4,4a, 9, 10, 10a-octahydrophenanthren-1-yl]methyl}-2,2,2-trifluoroacetamide]
IC50 [1]: 5.17 ± 0.1 µM | IC50 ([2]; Homo sapiens, UACC-903, 72 h): 1.2 µM | IC50 ([3]; Homo sapiens, 1205Lu, 72 h): 2 µM | effect on PI3K/AKT, STAT3 and MAPK signaling pathways [4]: inhibited | autophagic flux (p62 and LC3B proteins) [7]: dose dependently induced accumulation of p62 and LC3B proteins

CC(C)c1ccc2c(c1)CCC1[C@](C)(CNC(=O)C(Br)(Br)Br)CCC[C@]21C (stereo partly drawn) [5b, N-{[(1R, 4aS)-1,4a-dimethyl-7-(propan-2-yl)-1,2,3,4,4a, 9, 10, 10a-octahydrophenanthren-1-yl]methyl}-2,2,2-tribromoacetamide]
IC50 [1]: 4.1 ± 0.2 µM | IC50 ([2]; Homo sapiens, UACC-903, 72 h): 1 µM | IC50 ([3]; Homo sapiens, 1205Lu, 72 h): 1.8 µM

CC(=O)NC[C@]1(C)CCC[C@]2(C)c3ccc(C(C)C)cc3CCC12 (stereo partly drawn) [5c, N-{[(1R, 4aS)-1,4a-dimethyl-7-(propan-2-yl)-1,2,3,4,4a, 9, 10, 10a-octahydrophenanthren-1-yl]methyl} acetamide]
IC50 [1]: > 100 µM | IC50 ([2]; Homo sapiens, UACC-903, 72 h): 89.4 ± 3.3 µM | IC50 ([3]; Homo sapiens, 1205Lu, 72 h): > 100 µM | effect on PI3K/AKT, STAT3 and MAPK signaling pathways [4]: did not affect these pathways

CC(C)c1ccc2c(c1)CCC1[C@](C)(CNC(=O)c3ccccc3)CCC[C@]21C (stereo partly drawn) [5d, N-(((1R, 4aS)-7-isopropyl-1,4a-dimethyl-1,2,3,4,4a, 9, 10, 10a-octahydrophenanthren-1-yl)methyl) benzamide]
IC50 [1]: > 100 µM | IC50 ([2]; Homo sapiens, UACC-903, 72 h): > 100 µM | IC50 ([3]; Homo sapiens, 1205Lu, 72 h): > 100 µM

CC(C)c1ccc2c(c1)CCC1[C@](C)(CNCc3ccccc3)CCC[C@]21C (stereo partly drawn) [5e, N-benzyl-1-((1R, 4aS)-7-isopropyl-1,4a-dimethyl-1,2,3,4,4a, 9, 10, 10a-octahydrophenanthren-1-yl) methanamine]
IC50 [1]: 3.13 ± 0.4 µM | IC50 ([2]; Homo sapiens, UACC-903, 72 h): 6 µM | IC50 [3]: 7.05 ± 0.7 µM | IC50 ([3]; Homo sapiens, 1205Lu, 72 h): 7 µM

CC(C)c1ccc2c(c1)CCC1[C@](C)(CNC(c3ccccc3)(c3ccccc3)c3ccccc3)CCC[C@]21C (stereo partly drawn) [5f, {[(1R, 4aS)-1,4a-dimetyl-7-(propan-2-yl)-1,2,3,4,4a, 9, 10, 10a-octahydrophenanthren-1-yl]methyl} (triphenylmethyl) amine]
IC50 [1]: > 100 µM | IC50 ([2]; Homo sapiens, UACC-903, 72 h): > 100 µM | IC50 ([3]; Homo sapiens, 1205Lu, 72 h): > 100 µM

CC(C)C1=CC2=CC[C@@H]3[C@](C)(CCC[C@@]3(C)C(=O)O)[C@H]2CC1 [Abietic acid, reference compound]
IC50 [1]: > 100 µM | IC50 ([2]; Homo sapiens, UACC-903, 72 h): > 100 µM | IC50 ([3]; Homo sapiens, 1205Lu, 72 h): > 100 µM | effect on PI3K/AKT, STAT3 and MAPK signaling pathways [4]: did not affect these pathways | cellular endocytosis (Alexa Fluor conjugated transferrin uptake) [8]: did not occur

CC(C)c1ccc2c(c1)CCC1C(C)(CN)CCCC21C (stereo not shown) [Leelamine]
IC50 [1]: 8.91 ± 0.6 µM | IC50 ([2]; Homo sapiens, UACC-903, 72 h): 1.35 ± 0.1 µM | IC50 ([3]; Homo sapiens, 1205Lu, 72 h): 1.93 ± 0.2 µM | effect on PI3K/AKT, STAT3 and MAPK signaling pathways [4]: inhibited | body weights of mice [6]: No significant differences | time present in the serum ([9]; followed over 36 hours): ≤ 24 h | Tmax ([9]; mouse, serum, LC-MS/MS, read-out: time of maximum concentration in serum): 6 h | weight loss on repeated oral dosing [10]: did not cause any weight loss | autophagic flux (p62 and LC3B proteins) [7]: dose dependently induced accumulation of p62 and LC3B proteins

[(1R, 4aR)-1,4a-dimethyl-7-(propan-2-yl)-1, 2, 3, 4, 4a, 4b, 5, 6, 7,10a-decahydrophenanthren-1-yl] methanol [2b]
IC50 [2]: 52.6 ± 1.4 µM | IC50 [3]: 60.3 ± 1.6 µM

Source: article PMC5438648, “Identifying the structure-activity relationship of leelamine necessary for inhibiting intracellular cholesterol transport” (Oncotarget, 2017)
